Calls of active or inactive are those of the source. No rule for the calls is given here.
Tests used:
[1] = tested on: BMP4-induced signaling reporter cell assay; assay: blockade of BMP4-driven reporter signal – reporter cells, SAR follow-up (AID 652282)
[2] = as above; settings: BMP4-induced signaling reporter cell assay; at 10 µM (top of the series)

Compound | IC50 [1] | remaining activity % [2]
c1cc(N2CCNCC2)ccc1-c1cnc2c(-c3cn[nH]c3)cnn2c1 | – | -11.7
Clc1cc(-c2cnn3cc(-c4ccc(N5CCOCC5)cc4)cnc23)ccn1 | 0.609 µM | –
COc1ccc(-c2cnc3c(-c4ccnc5ccccc45)cnn3c2)cc1 | – | -16.3
c1ccc2c(-c3cnn4cc(-c5ccc(N6CCOCC6)cc5)cnc34)ccnc2c1 | – | -11
c1cc(N2CCOCC2)ccc1-c1cnc2c(-c3cn[nH]c3)cnn2c1 | 0.172 µM | –

More lines, main results first:

IC50 [1] | Compound | remaining activity % [2]
4.9 µM | COc1ccc(-c2cnc3c(-c4cncc5ccccc45)cnn3c2)cc1 | –
6.7 µM (inactive) | COc1ccc(-c2cnc3c(-c4cccc5cccnc45)cnn3c2)cc1 | –
0.152 µM | COc1ccc(-c2cnc3c(-c4cccc5ncccc45)cnn3c2)cc1 | –
0.27 µM | Clc1cc(-c2cnn3cc(-c4ccc(N5CCNCC5)cc4)cnc23)ccn1 | –
0.038 µM | COc1ccc(-c2cnc3c(-c4ccnc5ncccc45)cnn3c2)cc1 | –
0.274 µM | c1ccc2c(-c3cnn4cc(-c5ccc(N6CCOCC6)cc5)cnc34)csc2c1 | –
0.225 µM | c1ccc2c(-c3cnn4cc(-c5ccc(N6CCNCC6)cc5)cnc34)csc2c1 | –
4.5 µM | COc1ccc(-c2cnc3c(-c4ccnc5ccsc45)cnn3c2)cc1 | –
